Reference: the kinase profiling compilation of Christmann-Franck et al. (2016)

Columns and labels:
Assay in all cases: radiometric filter-binding kinase assay
[1] = target: PDGFRA (human) (UniProt P16234)
[2] = target: IRAK1 (human) (UniProt P51617)
[3] = target: CSNK1G2 (human) (UniProt P78368)
[4] = target: TLK1 (human) (UniProt Q9UKI8)
[5] = target: WNK1 (human) (UniProt Q9H4A3)
[6] = target: MYLK (human) (UniProt Q15746)
[7] = system: OXSR1 (human), O95747 [T185E]
[8] = target: SIK2 (human) (UniProt Q9H0K1)
[9] = target: ULK2 (human) (UniProt Q8IYT8)
[10] = target: TEK (human) (UniProt Q02763)
[11] = target: ABL1 (human) (UniProt P00519)
[12] = target: STK33 (human) (UniProt Q9BYT3)
[13] = target: MAP4K3 (human) (UniProt Q8IVH8)
[14] = target: TTBK2 (human) (UniProt Q6IQ55)
[15] = target: ULK1 (human) (UniProt O75385)
[16] = target: SIK3 (human) (UniProt Q9Y2K2)
[17] = target: CDK9 CCNT1 (human) (UniProt P50750+O60563)
[18] = target: STK16 (human) (UniProt O75716)
[19] = target: PRKAA1 PRKAB2 PRKAG1 (human) (UniProt O43741+Q13131+P54619)
[20] = target: EIF2AK3 (human) (UniProt Q9NZJ5)
[21] = target: PRKCG (human) (UniProt P05129)
[22] = target: TTBK1 (human) (UniProt Q5TCY1)
[23] = target: PTK6 (human) (UniProt Q13882)
[24] = target: TESK1 (human) (UniProt Q15569)
Sequence of TESK1 (human) (Q15569 whole entry, looked up): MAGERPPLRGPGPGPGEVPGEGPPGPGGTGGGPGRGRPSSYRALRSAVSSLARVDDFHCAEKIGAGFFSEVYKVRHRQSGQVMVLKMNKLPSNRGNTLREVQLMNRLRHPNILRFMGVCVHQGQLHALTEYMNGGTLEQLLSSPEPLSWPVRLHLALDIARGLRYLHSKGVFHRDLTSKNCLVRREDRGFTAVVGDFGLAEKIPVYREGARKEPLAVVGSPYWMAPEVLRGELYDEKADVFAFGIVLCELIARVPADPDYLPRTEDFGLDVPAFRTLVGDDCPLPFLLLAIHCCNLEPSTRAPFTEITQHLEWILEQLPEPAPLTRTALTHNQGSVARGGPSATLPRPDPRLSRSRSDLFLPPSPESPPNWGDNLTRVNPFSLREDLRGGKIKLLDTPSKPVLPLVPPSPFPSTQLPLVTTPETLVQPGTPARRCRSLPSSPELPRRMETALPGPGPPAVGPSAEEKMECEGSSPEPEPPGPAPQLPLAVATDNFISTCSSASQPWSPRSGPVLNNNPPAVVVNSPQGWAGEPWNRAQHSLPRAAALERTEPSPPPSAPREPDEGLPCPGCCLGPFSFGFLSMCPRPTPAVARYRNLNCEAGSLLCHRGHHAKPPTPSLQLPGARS

[25] = target: STK24 (human) (UniProt Q9Y6E0)
Sequence of STK24 (human) (Q9Y6E0 whole entry, looked up): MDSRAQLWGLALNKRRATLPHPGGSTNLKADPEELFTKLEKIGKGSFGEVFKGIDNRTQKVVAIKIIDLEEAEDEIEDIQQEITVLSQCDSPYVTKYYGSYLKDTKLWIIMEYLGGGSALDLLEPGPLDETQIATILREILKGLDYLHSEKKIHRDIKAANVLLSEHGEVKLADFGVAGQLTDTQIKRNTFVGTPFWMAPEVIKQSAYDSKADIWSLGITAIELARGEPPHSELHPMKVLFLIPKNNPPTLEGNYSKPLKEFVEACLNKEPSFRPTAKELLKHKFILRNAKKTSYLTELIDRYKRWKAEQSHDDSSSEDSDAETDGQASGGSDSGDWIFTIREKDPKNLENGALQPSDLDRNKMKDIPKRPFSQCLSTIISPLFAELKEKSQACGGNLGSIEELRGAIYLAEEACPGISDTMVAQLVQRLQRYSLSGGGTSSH

[26] = target: MAP4K5 (human) (UniProt Q9Y4K4)
Sequence of MAP4K5 (human) (Q9Y4K4 whole entry, looked up): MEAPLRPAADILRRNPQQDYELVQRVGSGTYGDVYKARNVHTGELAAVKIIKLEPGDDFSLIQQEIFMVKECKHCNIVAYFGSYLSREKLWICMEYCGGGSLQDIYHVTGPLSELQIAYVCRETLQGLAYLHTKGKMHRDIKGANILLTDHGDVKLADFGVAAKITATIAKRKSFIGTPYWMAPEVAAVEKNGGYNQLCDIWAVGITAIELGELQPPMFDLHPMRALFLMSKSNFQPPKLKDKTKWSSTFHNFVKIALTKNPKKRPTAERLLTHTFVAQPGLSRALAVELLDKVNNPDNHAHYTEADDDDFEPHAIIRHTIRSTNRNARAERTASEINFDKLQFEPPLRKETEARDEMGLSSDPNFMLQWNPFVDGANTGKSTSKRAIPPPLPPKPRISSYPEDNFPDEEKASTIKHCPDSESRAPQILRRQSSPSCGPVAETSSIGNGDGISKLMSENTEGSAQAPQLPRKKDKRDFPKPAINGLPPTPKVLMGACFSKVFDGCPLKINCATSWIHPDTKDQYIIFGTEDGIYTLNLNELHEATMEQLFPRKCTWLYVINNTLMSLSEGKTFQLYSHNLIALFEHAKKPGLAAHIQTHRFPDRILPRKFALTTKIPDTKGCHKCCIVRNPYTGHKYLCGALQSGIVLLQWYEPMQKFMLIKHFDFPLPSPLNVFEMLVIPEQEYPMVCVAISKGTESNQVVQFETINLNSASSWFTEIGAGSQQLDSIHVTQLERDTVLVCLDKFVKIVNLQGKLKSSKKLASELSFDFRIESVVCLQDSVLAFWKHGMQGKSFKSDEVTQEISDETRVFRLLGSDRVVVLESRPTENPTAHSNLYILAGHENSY

[27] = target: ZAP70 (human) (UniProt P43403)
Sequence of ZAP70 (human) (P43403 whole entry, looked up): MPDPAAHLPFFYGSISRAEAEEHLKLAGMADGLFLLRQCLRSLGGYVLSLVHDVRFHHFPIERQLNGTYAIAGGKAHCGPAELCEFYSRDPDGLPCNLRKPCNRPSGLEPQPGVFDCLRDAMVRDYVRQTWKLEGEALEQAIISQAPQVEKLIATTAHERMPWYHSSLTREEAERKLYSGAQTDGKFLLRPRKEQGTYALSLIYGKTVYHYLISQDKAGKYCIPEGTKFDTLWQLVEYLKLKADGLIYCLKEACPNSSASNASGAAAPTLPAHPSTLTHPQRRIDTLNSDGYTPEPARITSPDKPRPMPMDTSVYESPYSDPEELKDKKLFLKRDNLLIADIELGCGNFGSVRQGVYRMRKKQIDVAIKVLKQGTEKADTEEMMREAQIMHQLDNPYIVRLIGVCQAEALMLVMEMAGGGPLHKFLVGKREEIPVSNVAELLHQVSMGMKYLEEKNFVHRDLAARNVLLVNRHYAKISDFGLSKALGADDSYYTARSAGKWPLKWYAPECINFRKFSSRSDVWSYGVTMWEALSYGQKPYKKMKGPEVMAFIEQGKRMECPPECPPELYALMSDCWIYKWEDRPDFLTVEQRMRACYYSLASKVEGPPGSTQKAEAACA

[28] = target: TSSK1B (human) (UniProt Q9BXA7)
[29] = target: DDR2 (human) (UniProt Q16832)

Sequence of OXSR1 (human), O95747 [T185E] (O95747 whole entry T185E, looked up): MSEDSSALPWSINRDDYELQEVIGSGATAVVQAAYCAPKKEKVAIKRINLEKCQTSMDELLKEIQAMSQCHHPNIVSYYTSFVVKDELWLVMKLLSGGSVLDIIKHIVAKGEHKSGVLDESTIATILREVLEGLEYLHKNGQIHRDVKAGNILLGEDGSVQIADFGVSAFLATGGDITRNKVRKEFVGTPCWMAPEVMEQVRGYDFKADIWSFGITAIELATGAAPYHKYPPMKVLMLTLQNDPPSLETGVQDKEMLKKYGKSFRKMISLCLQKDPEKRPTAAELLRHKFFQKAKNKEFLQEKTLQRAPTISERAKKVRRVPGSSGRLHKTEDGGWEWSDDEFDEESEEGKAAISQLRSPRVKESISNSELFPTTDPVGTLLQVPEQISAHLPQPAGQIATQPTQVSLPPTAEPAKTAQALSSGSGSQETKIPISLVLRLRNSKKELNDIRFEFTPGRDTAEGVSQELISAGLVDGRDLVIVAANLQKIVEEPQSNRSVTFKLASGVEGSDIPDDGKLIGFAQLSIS
Sequence of MYLK (human) (Q15746 whole entry, looked up): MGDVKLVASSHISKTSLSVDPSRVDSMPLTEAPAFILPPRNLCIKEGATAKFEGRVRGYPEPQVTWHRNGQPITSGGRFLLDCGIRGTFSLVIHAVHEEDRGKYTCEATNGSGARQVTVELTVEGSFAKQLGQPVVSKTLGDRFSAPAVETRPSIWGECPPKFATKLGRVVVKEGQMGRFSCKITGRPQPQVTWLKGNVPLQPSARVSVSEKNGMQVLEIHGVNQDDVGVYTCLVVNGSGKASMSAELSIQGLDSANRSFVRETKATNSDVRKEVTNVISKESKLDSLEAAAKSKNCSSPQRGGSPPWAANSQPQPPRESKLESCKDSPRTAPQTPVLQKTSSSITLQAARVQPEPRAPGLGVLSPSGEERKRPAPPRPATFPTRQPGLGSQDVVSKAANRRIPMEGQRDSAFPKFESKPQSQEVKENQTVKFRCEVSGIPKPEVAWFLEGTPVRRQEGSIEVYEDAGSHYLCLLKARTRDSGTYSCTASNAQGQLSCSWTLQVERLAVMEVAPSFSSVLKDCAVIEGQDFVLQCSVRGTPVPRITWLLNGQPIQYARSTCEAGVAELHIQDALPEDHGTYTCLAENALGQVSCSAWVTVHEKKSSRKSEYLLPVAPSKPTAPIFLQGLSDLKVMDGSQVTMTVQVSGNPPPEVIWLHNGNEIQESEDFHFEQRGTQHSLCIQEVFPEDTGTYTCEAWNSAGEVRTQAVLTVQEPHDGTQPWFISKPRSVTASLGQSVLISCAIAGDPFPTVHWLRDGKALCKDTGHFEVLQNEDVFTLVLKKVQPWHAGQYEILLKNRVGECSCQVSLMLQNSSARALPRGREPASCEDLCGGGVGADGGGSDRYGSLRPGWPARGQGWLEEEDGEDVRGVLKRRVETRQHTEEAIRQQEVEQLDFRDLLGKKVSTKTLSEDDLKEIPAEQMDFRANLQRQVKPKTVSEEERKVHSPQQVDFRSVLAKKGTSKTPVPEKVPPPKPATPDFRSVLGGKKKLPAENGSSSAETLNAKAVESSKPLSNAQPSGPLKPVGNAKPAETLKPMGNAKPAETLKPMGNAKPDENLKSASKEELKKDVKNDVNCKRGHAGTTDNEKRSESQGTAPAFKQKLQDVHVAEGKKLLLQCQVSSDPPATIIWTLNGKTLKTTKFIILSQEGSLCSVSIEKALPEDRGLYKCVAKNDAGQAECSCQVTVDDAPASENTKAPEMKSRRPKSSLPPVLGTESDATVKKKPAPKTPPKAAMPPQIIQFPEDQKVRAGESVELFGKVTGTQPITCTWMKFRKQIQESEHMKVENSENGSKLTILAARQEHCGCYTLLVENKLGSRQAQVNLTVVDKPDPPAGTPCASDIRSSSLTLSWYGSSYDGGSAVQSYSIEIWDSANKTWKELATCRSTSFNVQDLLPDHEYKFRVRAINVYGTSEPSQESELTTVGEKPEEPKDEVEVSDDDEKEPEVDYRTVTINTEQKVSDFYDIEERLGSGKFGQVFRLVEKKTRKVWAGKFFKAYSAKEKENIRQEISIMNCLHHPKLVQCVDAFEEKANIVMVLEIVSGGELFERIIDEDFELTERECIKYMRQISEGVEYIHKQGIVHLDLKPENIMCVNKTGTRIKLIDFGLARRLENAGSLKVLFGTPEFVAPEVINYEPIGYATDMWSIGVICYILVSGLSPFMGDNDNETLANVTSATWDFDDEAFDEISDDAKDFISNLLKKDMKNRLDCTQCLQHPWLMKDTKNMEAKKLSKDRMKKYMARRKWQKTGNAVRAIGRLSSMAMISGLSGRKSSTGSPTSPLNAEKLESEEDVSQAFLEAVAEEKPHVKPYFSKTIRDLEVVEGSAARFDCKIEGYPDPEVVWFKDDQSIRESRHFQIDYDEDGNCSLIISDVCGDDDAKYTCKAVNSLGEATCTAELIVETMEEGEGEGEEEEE

`C=C1C(=O)OC2C1CC/C(C)=C/CCC1(C)OC21` (stereo not given) gave a residual activity ([1]; compound 5.0 µM) of 109%, a residual activity ([2]; compound 1.0 µM) of 96% and a residual activity ([2]; compound 5.0 µM) of 102%. The residual activity ([3]; compound 1.0 µM) was 124%, the residual activity ([3]; compound 5.0 µM) was 101% and the residual activity ([4]; compound 1.0 µM) was 108%. It also gave a residual activity ([4]; compound 5.0 µM) of 115%, a residual activity ([5]; compound 1.0 µM) of 112% and a residual activity ([5]; compound 5.0 µM) of 100%. It also gave a residual activity ([6]; compound 1.0 µM) of 123%, a residual activity ([6]; compound 5.0 µM) of 113% and a residual activity ([7]; compound 1.0 µM) of 115%. It also gave a residual activity ([8]; compound 1.0 µM) of 108%, a residual activity ([8]; compound 5.0 µM) of 93% and a residual activity ([9]; compound 1.0 µM) of 96%. The residual activity ([9]; compound 5.0 µM) was 121%, the residual activity ([10]; compound 1.0 µM) was 99% and the residual activity ([10]; compound 5.0 µM) was 80%. It also gave a residual activity ([11]; compound 1.0 µM) of 119%, a residual activity ([11]; compound 5.0 µM) of 110% and a residual activity ([12]; compound 1.0 µM) of 117%. It also gave a residual activity ([12]; compound 5.0 µM) of 102%, a residual activity ([13]; compound 1.0 µM) of 95% and a residual activity ([13]; compound 5.0 µM) of 88%. For the same compound, the residual activity ([14]; compound 1.0 µM) was 125%, the residual activity ([14]; compound 5.0 µM) was 100% and the residual activity ([15]; compound 1.0 µM) was 104%. The residual activity ([15]; compound 5.0 µM) was 110%, the residual activity ([16]; compound 1.0 µM) was 110% and the residual activity ([16]; compound 5.0 µM) was 104%. It also gave a residual activity ([17]; compound 1.0 µM) of 119%, a residual activity ([17]; compound 5.0 µM) of 101% and a residual activity ([18]; compound 1.0 µM) of 121%. For the same compound, the residual activity ([18]; compound 5.0 µM) was 106%, the residual activity ([19]; compound 1.0 µM) was 111% and the residual activity ([19]; compound 5.0 µM) was 107%. For the same compound, the residual activity ([20]; compound 1.0 µM) was 111%, the residual activity ([20]; compound 5.0 µM) was 123% and the residual activity ([21]; compound 1.0 µM) was 120%. It also gave a residual activity ([21]; compound 5.0 µM) of 121%, a residual activity ([22]; compound 1.0 µM) of 110% and a residual activity ([22]; compound 5.0 µM) of 103%. It also gave a residual activity ([23]; compound 1.0 µM) of 107%, a residual activity ([23]; compound 5.0 µM) of 120% and a residual activity ([24]; compound 1.0 µM) of 106%. It also gave a residual activity ([24]; compound 5.0 µM) of 112%, a residual activity ([25]; compound 1.0 µM) of 101% and a residual activity ([25]; compound 5.0 µM) of 88%. The residual activity ([26]; compound 1.0 µM) was 116%, the residual activity ([26]; compound 5.0 µM) was 97% and the residual activity ([27]; compound 1.0 µM) was 99%. For the same compound, the residual activity ([27]; compound 5.0 µM) was 104%, the residual activity ([28]; compound 1.0 µM) was 103% and the residual activity ([28]; compound 5.0 µM) was 93%. The residual activity ([29]; compound 1.0 µM) was 105% and the residual activity ([29]; compound 5.0 µM) was 107%.
Work on `CC1=C(CO)C(=O)O[C@@H]([C@@H](C)[C@H]2CC[C@H]3[C@@H]4C[C@H]5O[C@]56[C@@H](O)C=CC(=O)[C@]6(C)C4CC[C@]23C)C1` (stereo not given in full) yielded a residual activity ([1]; compound 1.0 µM) of 117%, a residual activity ([1]; compound 10.0 µM) of 121% and a residual activity ([2]; compound 0.1 µM) of 101%. The residual activity ([2]; compound 1.0 µM) was 99%, the residual activity ([2]; compound 10.0 µM) was 100% and the residual activity ([3]; compound 0.1 µM) was 109%. It also gave a residual activity ([3]; compound 1.0 µM) of 104%, a residual activity ([3]; compound 10.0 µM) of 103% and a residual activity ([4]; compound 0.1 µM) of 101%. It also gave a residual activity ([4]; compound 1.0 µM) of 103%, a residual activity ([4]; compound 10.0 µM) of 98% and a residual activity ([5]; compound 0.1 µM) of 117%. The residual activity ([5]; compound 1.0 µM) was 111%, the residual activity ([5]; compound 10.0 µM) was 113% and the residual activity ([6]; compound 0.1 µM) was 113%. It also gave a residual activity ([6]; compound 1.0 µM) of 114%, a residual activity ([6]; compound 10.0 µM) of 114% and a residual activity ([7]; compound 0.1 µM) of 128%. It also gave a residual activity ([7]; compound 1.0 µM) of 109%, a residual activity ([7]; compound 10.0 µM) of 125% and a residual activity ([8]; compound 0.1 µM) of 82%. The residual activity ([8]; compound 1.0 µM) was 78%, the residual activity ([8]; compound 10.0 µM) was 66% and the residual activity ([9]; compound 0.1 µM) was 92%. For the same compound, the residual activity ([9]; compound 1.0 µM) was 96%, the residual activity ([9]; compound 10.0 µM) was 90% and the residual activity ([10]; compound 1.0 µM) was 98%. For the same compound, the residual activity ([10]; compound 10.0 µM) was 83%, the residual activity ([11]; compound 0.1 µM) was 101% and the residual activity ([11]; compound 1.0 µM) was 110%. For the same compound, the residual activity ([11]; compound 10.0 µM) was 106%, the residual activity ([12]; compound 0.1 µM) was 116% and the residual activity ([12]; compound 10.0 µM) was 120%. It also gave a residual activity ([13]; compound 0.1 µM) of 81%, a residual activity ([13]; compound 1.0 µM) of 85% and a residual activity ([13]; compound 10.0 µM) of 84%. The residual activity ([14]; compound 0.1 µM) was 108%, the residual activity ([14]; compound 1.0 µM) was 105% and the residual activity ([14]; compound 10.0 µM) was 112%. The residual activity ([15]; compound 0.1 µM) was 108%, the residual activity ([15]; compound 1.0 µM) was 115% and the residual activity ([15]; compound 10.0 µM) was 111%. It also gave a residual activity ([16]; compound 0.1 µM) of 105%, a residual activity ([16]; compound 1.0 µM) of 106% and a residual activity ([16]; compound 10.0 µM) of 94%. For the same compound, the residual activity ([17]; compound 0.1 µM) was 94%, the residual activity ([17]; compound 1.0 µM) was 97% and the residual activity ([17]; compound 10.0 µM) was 107%. For the same compound, the residual activity ([18]; compound 10.0 µM) was 126%, the residual activity ([19]; compound 0.1 µM) was 107% and the residual activity ([19]; compound 1.0 µM) was 120%. It also gave a residual activity ([19]; compound 10.0 µM) of 112%, a residual activity ([20]; compound 0.1 µM) of 129% and a residual activity ([20]; compound 1.0 µM) of 108%. For the same compound, the residual activity ([20]; compound 10.0 µM) was 115%, the residual activity ([21]; compound 0.1 µM) was 119% and the residual activity ([21]; compound 1.0 µM) was 112%. It also gave a residual activity ([21]; compound 10.0 µM) of 102%, a residual activity ([22]; compound 0.1 µM) of 100% and a residual activity ([22]; compound 1.0 µM) of 118%. It also gave a residual activity ([22]; compound 10.0 µM) of 95%, a residual activity ([23]; compound 0.1 µM) of 109% and a residual activity ([23]; compound 1.0 µM) of 123%. For the same compound, the residual activity ([24]; compound 0.1 µM) was 109%, the residual activity ([24]; compound 1.0 µM) was 114% and the residual activity ([24]; compound 10.0 µM) was 104%. It also gave a residual activity ([25]; compound 0.1 µM) of 111%, a residual activity ([25]; compound 1.0 µM) of 126% and a residual activity ([25]; compound 10.0 µM) of 133%. The residual activity ([26]; compound 0.1 µM) was 106%, the residual activity ([26]; compound 1.0 µM) was 110% and the residual activity ([26]; compound 10.0 µM) was 94%. The residual activity ([27]; compound 1.0 µM) was 113%, the residual activity ([28]; compound 0.1 µM) was 100% and the residual activity ([28]; compound 1.0 µM) was 102%. It also gave a residual activity ([28]; compound 10.0 µM) of 78%, a residual activity ([29]; compound 0.1 µM) of 105% and a residual activity ([29]; compound 1.0 µM) of 100%. The residual activity ([29]; compound 10.0 µM) was 94%.
